Results on two molecules are retold here after ChEMBL document CHEMBL5543126, “Combinatorial Ubiquitination REal-time PROteolysis (CURE-PROs): A Modular Platform for Generating Reversible, Self-Assembling Bifunctional Targeted Degraders” (J Med Chem, 2024).

Active and inactive are the calls of the source. No cut-off for these calls is given here.

The target in test [1] is T1, von Hippel-Lindau disease tumor suppressor/Bromodomain-containing protein 4 (Homo sapiens, UniProt O60885+P40337). Put plainly: PROTAC activity at BRD4/VHL in human MCF7 cells assessed as induction of BRD4 degradation by measuring residual activity at 10 uM incubated for 24 hrs in presence of 3 uM VHL based ligand (2S,4R)-1-((S)-2-(2,3-dihydroxybenzamido)-3,3-dimethylbutanoyl)-4-hydroxy-N-(4-(4-methylthiazol-5-yl)benzyl)pyrrolidine-2-carboxamide by Western blot based Combinatorial Ubiquitination Real-time PROteolysis analysis. Format: cell-based.
T1 sequence (P40337 whole entry, looked up, other chains not shown): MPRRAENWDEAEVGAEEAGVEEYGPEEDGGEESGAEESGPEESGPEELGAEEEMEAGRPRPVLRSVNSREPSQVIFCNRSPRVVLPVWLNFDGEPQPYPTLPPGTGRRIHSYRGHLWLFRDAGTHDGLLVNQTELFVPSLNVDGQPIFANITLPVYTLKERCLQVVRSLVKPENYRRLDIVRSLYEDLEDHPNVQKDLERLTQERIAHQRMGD

In test [2] the target is T1, von Hippel-Lindau disease tumor suppressor/Bromodomain-containing protein 4. The experiment in a line: PROTAC activity at BRD4/VHL in human MCF7 cells assessed as induction of BRD4 degradation by measuring residual activity at 1 uM incubated for 24 hrs in presence of 100 nM VHL based ligand (2S,4R)-1-((S)-2-(2,3-dihydroxybenzamido)-3,3-dimethylbutanoyl)-4-hydroxy-N-(4-(4-methylthiazol-5-yl)benzyl)pyrrolidine-2-carboxamide by Western blot based Combinatorial Ubiquitination Real-time PROteolysis analysis. Format: cell-based. Background: In western blotting, separated proteins are transferred to a membrane and probed.

In a further test the test system is MV4-11. The experiment in a line: Antitumor activity against human MV4-11 cells xenografted in nude mouse assessed as reduction in BRD4 level in tumor at 10 mg/kg, ip administered for 4 hrs and measured at 9 to 12 hrs in presence of VHL based ligand (2S,4R)-1-((S)-2-(2,3-dihydroxybenzamido)-3,3-dimethylbutanoyl)-4-hydroxy-N-(4-(4-methylthiazol-5-yl)benzyl)pyrrolidine-2-carboxamide. Format: functional, organism-based. The settings on record: time 9-12 hrs. (In xenograft studies the graft and the host belong to different species.)

Test [3] has as its target T1, von Hippel-Lindau disease tumor suppressor/Bromodomain-containing protein 4. Put plainly: PROTAC activity at BRD4/VHL in human MCF7 cells assessed as induction of BRD4 degradation by measuring residual activity at 30 nM incubated for 24 hrs in presence of 300 nM VHL based ligand (2S,4R)-1-((S)-2-(2,3-dihydroxybenzamido)-3,3-dimethylbutanoyl)-4-hydroxy-N-(4-(4-methylthiazol-5-yl)benzyl)pyrrolidine-2-carboxamide by Western blot based Combinatorial Ubiquitination Real-time PROteolysis analysis. The test is classed as cell-based.

Test [4] shares this target. The experiment in a line: PROTAC activity at VHL/BRD4 in HEK293 cells assessed as induction of BRD4 degradation by measuring maximal level of degradation at 0.3 uM measured every 15 mins for 24 hrs in presence of VHL based ligand (2S,4R)-1-((S)-2-(2,3-dihydroxybenzamido)-3,3-dimethylbutanoyl)-4-hydroxy-N-(4-(4-methylthiazol-5-yl)benzyl)pyrrolidine-2-carboxamide by HiBiT based Combinatorial Ubiquitination Real-time PROteolysis analysis. The test is classed as cell-based. Background: HiBiT is a short tag that completes a luciferase, so light tracks the accessible tagged protein.

Test [5] has the same target. The experiment in a line: PROTAC activity at BRD4/VHL in human MCF7 cells assessed as induction of BRD4 degradation by measuring residual activity at 30 nM incubated for 24 hrs in presence of 1 uM VHL based ligand (2S,4R)-1-((S)-2-(2,3-dihydroxybenzamido)-3,3-dimethylbutanoyl)-4-hydroxy-N-(4-(4-methylthiazol-5-yl)benzyl)pyrrolidine-2-carboxamide by Western blot based Combinatorial Ubiquitination Real-time PROteolysis analysis. Format: cell-based.

Test [6] shares this target. Put plainly: PROTAC activity at BRD4/VHL in human MCF7 cells assessed as induction of BRD4 degradation by measuring residual activity at 1 uM incubated for 24 hrs in presence of 300 nM VHL based ligand (2S,4R)-1-((S)-2-(2,3-dihydroxybenzamido)-3,3-dimethylbutanoyl)-4-hydroxy-N-(4-(4-methylthiazol-5-yl)benzyl)pyrrolidine-2-carboxamide by Western blot based Combinatorial Ubiquitination Real-time PROteolysis analysis. The test is classed as cell-based.

Test [7] deals with Protein cereblon/Bromodomain-containing protein 4 (Homo sapiens) (UniProt O60885+Q96SW2). The experiment in a line: PROTAC activity at BRD4/CRBN in human HeLa cells assessed as induction of BRD4 degradation at 10 uM incubated for 24 hrs in presence of CRBN based ligand N-((2-(2,6-dioxopiperidin-3-yl)-1,3-dioxoisoindolin-4-yl)methyl)-2,3-dihydroxybenzamide by Western blot analysis based Combinatorial Ubiquitination Real-time PROteolysis analysis. Format: cell-based.
Chain of Protein cereblon/Bromodomain-containing protein 4 (Homo sapiens) (Q96SW2 whole entry, looked up, other chains not shown): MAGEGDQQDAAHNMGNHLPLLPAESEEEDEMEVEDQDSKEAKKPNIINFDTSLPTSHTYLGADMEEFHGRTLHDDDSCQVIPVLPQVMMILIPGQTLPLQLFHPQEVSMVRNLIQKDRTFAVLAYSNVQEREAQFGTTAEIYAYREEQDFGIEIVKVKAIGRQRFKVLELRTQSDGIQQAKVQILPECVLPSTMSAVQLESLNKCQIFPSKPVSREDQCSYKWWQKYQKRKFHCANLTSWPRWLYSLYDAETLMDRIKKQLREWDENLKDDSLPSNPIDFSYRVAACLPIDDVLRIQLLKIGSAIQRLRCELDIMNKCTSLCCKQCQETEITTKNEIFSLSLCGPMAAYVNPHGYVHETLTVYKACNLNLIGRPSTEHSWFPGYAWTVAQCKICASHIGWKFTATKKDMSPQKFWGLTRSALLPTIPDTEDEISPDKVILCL

In test [8] the target is T1, von Hippel-Lindau disease tumor suppressor/Bromodomain-containing protein 4. The experiment in a line: PROTAC activity at BRD4/VHL in human MCF7 cells assessed as induction of BRD4 degradation by measuring residual activity at 300 nM incubated for 24 hrs in presence of 1 uM VHL based ligand (2S,4R)-1-((S)-2-(2,3-dihydroxybenzamido)-3,3-dimethylbutanoyl)-4-hydroxy-N-(4-(4-methylthiazol-5-yl)benzyl)pyrrolidine-2-carboxamide by Western blot based Combinatorial Ubiquitination Real-time PROteolysis analysis. Format: cell-based.

The target is the same in test [9]. Put plainly: PROTAC activity at BRD4/VHL in human MCF7 cells assessed as induction of BRD4 degradation by measuring residual activity at 10 uM incubated for 24 hrs in presence of 3 uM BRD4 based ligand ((4S)-6-(4-chlorophenyl)-4-(2-(ethylamino)-2-oxoethyl)-1-methyl4Hbenzo[f][1,2,4]triazolo [4,3-a][1,4]diazepin-8-yl)boronic acid by Western blot based Combinatorial Ubiquitination Real-time PROteolysis analysis. The test is classed as cell-based.

For test [10] the target is unchanged. The experiment in a line: PROTAC activity at BRD4/VHL in human MCF7 cells assessed as induction of BRD4 degradation by measuring residual activity at 300 nM incubated for 24 hrs in presence of 10 uM BRD4 based ligand ((4S)-6-(4-chlorophenyl)-4-(2-(ethylamino)-2-oxoethyl)-1-methyl4Hbenzo[f][1,2,4]triazolo [4,3-a][1,4]diazepin-8-yl)boronic acid by Western blot based Combinatorial Ubiquitination Real-time PROteolysis analysis. The test is classed as cell-based.

For test [11] the target is unchanged. The experiment in a line: PROTAC activity at VHL/BRD4 in human MCF7 cells assessed as induction of BRD4 degradation at 10 uM incubated for 24 hrs in presence of BRD4 ligand based ((4S)-6-(4-chlorophenyl)-4-(2-(ethylamino)-2-oxoethyl)-1-methyl4Hbenzo[f][1,2,4]triazolo [4,3-a][1,4]diazepin-8-yl)boronic acid by Western blot based Combinatorial Ubiquitination Real-time PROteolysis analysis. The test is classed as cell-based.

For test [12] the target is unchanged. The experiment in a line: PROTAC activity at BRD4/VHL in human MCF7 cells assessed as induction of BRD4 degradation by measuring residual activity at 100 nM incubated for 24 hrs in presence of BRD4 based ligand ((4S)-6-(4-chlorophenyl)-4-(2-(ethylamino)-2-oxoethyl)-1-methyl4Hbenzo[f][1,2,4]triazolo [4,3-a][1,4]diazepin-8-yl)boronic acid by Western blot based Combinatorial Ubiquitination Real-time PROteolysis analysis. The test is classed as cell-based.

Test [13] has the same target. Put plainly: PROTAC activity at BRD4/VHL in human MCF7 cells assessed as induction of BRD4 degradation by measuring residual activity at 1 uM incubated for 24 hrs in presence of BRD4 based ligand ((4S)-6-(4-chlorophenyl)-4-(2-(ethylamino)-2-oxoethyl)-1-methyl4Hbenzo[f][1,2,4]triazolo [4,3-a][1,4]diazepin-8-yl)boronic acid by Western blot based Combinatorial Ubiquitination Real-time PROteolysis analysis. Format: cell-based.

Test [14] shares this target. The experiment in a line: PROTAC activity at BRD4/VHL in human MCF7 cells assessed as induction of BRD4 degradation by measuring residual activity at 100 nM incubated for 24 hrs in presence of 10 uM BRD4 based ligand ((4S)-6-(4-chlorophenyl)-4-(2-(ethylamino)-2-oxoethyl)-1-methyl4Hbenzo[f][1,2,4]triazolo [4,3-a][1,4]diazepin-8-yl)boronic acid by Western blot based Combinatorial Ubiquitination Real-time PROteolysis analysis. The test is classed as cell-based.

As to `CCNC(=O)C[C@@H]1N=C(c2ccc(Cl)cc2)c2cc(B(O)O)ccc2-n2c(C)nnc21`, the Activity in test [1] stood at 7%; in test [2], 56%; in test [3], 104%; in test [5], 96%; in test [6] it was 48%; in [8], 38%. Also, the result in the test with MV4-11 was Active. In addition, the Emax (as a rule, the size of the effect at its maximum, as opposed to the concentration needed) in test [4] is 47%. For the same molecule, in [7], the result was inactive.

Take `Cc1ncsc1-c1ccc(CNC(=O)[C@@H]2C[C@@H](O)CN2C(=O)[C@@H](NC(=O)c2cccc(O)c2O)C(C)(C)C)cc1`: the Activity in test [9] amounted to 7%; in test [10], 40%; in test [12], 89%; in test [13] it was 64%; in test [14] it was 87%. The result in [11] was Active.
